Test results as given in patent publication US20060009478A1, “Methods for the treatment of back pain” (priority 2003, published 2006).

Tests used:
[1] = test system: patients with moderate to severe chronic pain due to osteoarthritis of the hip or knee; test: Pain intensity (daily diary, 11-point numerical scale), 3-week osteoarthritis study; format: in vivo, human; conditions: ITT, LOCF, average of last two days of dosing week
Protocol: A multicenter, randomized, double-blind, active- and placebo-controlled, dose escalation, clinical study was designed and conducted. […] During a 4- to 7-day washout period, patients stopped taking all of their pain medication other than acetaminophen (500 mg every 4-6 hours PRN (a maximum of 5 caplets per day)).
Pain Intensity was assessed by prompting the patient with the question, “How would you rate your overall pain intensity at this time?”, and the PI score was recorded in the clinic. Pain Intensity was also assessed by prompting the patient with the question, “How would you rate your overall pain intensity during the past 24 hours?”, and a daily PI diary score was recorded by the patient at bedtime. For both Pain Intensity prompts, the response was scored on an 11-point numerical scale (0=no pain and 10=severe pain).
For the efficacy analysis, endpoints were represented and analyzed by week. Missing efficacy data was imputed across weeks using the last-observation-carried-forward (LOCF) method. Thus, the primary procedure for the analysis of efficacy data was based on a LOCF approach.
The daily pain intensity ratings were summarized as follows. For each week, the pain intensity recorded on the last two full days of dosing within the week, restricted to Day 5 or later, was averaged. If only a single observation was available, it was used; otherwise, the endpoint was not defined. The pain intensity averages were represented as both (1) a change from baseline and (2) a percent change from baseline. The baseline value was defined as the average pain intensity over the last two values recorded during the baseline period; if necessary, a single value was used.
For primary analysis of data, the primary efficacy endpoint was the percent change from baseline in pain intensity at Week 3. Percent change in pain intensity was analyzed using ANOVA methods. The ANOVA model included factors for treatment, sex, and their interaction. Additional covariates could be added to the model for exploratory purposes. Pairwise treatment group comparisons were made using contrasts within the ANOVA framework. Testing employed Type III sums of squares. If the assumptions of the parametric tests were not valid, non-parametric tests were used.

[2] = test system: patients with moderate to severe chronic low back pain; test: AE days and average AE days of opioid associated AEs, low back pain study; conditions: ITT population
[3] = 11-point scale 0=no pain, 10=severe pain
[4] = (total days with AE)/(days on study drug)
[5] = AE stop date − AE start date + 1

SMILES: COc1ccc2c3c1O[C@H]1C(=O)CC[C@@]4(O)[C@@H](C2)N(C)CC[C@]314 [OXY QID, oxycodone]
- Pain intensity, actual value at Week 1, mean ([1]; FEMALE, 11-point scale): 6.2
- Pain intensity, actual value at Week 1, median ([1]; FEMALE, 11-point scale): 6.3
- Pain intensity, actual value at Week 2, mean ([1]; FEMALE, 11-point scale): 5.9
- Pain intensity, actual value at Week 2, median ([1]; FEMALE, 11-point scale): 6.3
- Pain intensity, actual value at Week 3, mean ([1]; FEMALE, 11-point scale): 5.9
- Pain intensity, actual value at Week 3, median ([1]; FEMALE, 11-point scale): 6.0
- Pain intensity, percent change from baseline to Week 1, mean [1]: −18.4%
- Pain intensity, percent change from baseline to Week 1, median [1]: −16.7%
- Pain intensity, percent change from baseline to Week 2, mean [1]: −22.9%
- Pain intensity, percent change from baseline to Week 2, median [1]: −20.0%
- Pain intensity, percent change from baseline to Week 3, median [1]: −20.0%
- Pain intensity, actual value at Week 1, mean [1, 3]: 6.1
- Pain intensity, actual value at Week 1, median [1, 3]: 6.0
- Pain intensity, actual value at Week 2, mean [1, 3]: 5.8
- Pain intensity, actual value at Week 2, median [1, 3]: 6.0
- Pain intensity, actual value at Week 3, mean [1, 3]: 5.6
- Pain intensity, actual value at Week 3, median [1, 3]: 5.5
- Pain intensity, percent change from baseline to Week 3, mean ([1]; primary efficacy endpoint): −24.6%
- Pain intensity, actual value at Week 2, mean ([1]; MALE, 11-point scale): 5.5
- Pain intensity, actual value at Week 2, median ([1]; MALE, 11-point scale): 5.5
- Pain intensity, actual value at Week 3, mean ([1]; MALE, 11-point scale): 5.0
- Pain intensity, actual value at Week 3, median ([1]; MALE, 11-point scale): 4.5
- Pain intensity, actual value at Week 1, mean ([1]; males, 11-point scale): 5.9
- Pain intensity, actual value at Week 1, median ([1]; males, 11-point scale): 6.0
- Average AE day for constipation, maximum [2, 4]: (1.13)
- Average AE day for constipation, mean [2, 4]: 0.24
- Average AE day for constipation, median [2, 4]: 0.05
- Average AE day for constipation, minimum [2, 4]: 0.00
- Average AE day for dizziness, maximum [2, 4]: 1.73
- Average AE day for dizziness, mean (SD) [2, 4]: 0.14 (0.281)
- Average AE day for dizziness, median [2, 4]: 0.01
- Average AE day for dizziness, minimum [2, 4]: 0.00
- Average AE day for nausea, maximum [2, 4]: 2.00
- Average AE day for nausea, mean (SD) [2, 4]: 0.14 (0.266)
- Average AE day for nausea, median [2, 4]: 0.03
- Average AE day for nausea, minimum [2, 4]: 0.00
- Average AE day for pruritus, maximum [2, 4]: 2.00
- Average AE day for pruritus, mean (SD) [2, 4]: 0.23 (0.355)
- Average AE day for pruritus, median [2, 4]: 0.03
- Average AE day for pruritus, minimum [2, 4]: 0.00
- Average AE day for somnolence, maximum [2, 4]: 2.00
- Average AE day for somnolence, mean (SD) [2, 4]: 0.31 (0.392)
- Average AE day for somnolence, median [2, 4]: 0.11
- Average AE day for somnolence, minimum [2, 4]: 0.00
- Average AE day for vomiting, maximum [2, 4]: 1.00
- Average AE day for vomiting, mean (SD) [2, 4]: 0.02 (0.087)
- Average AE day for vomiting, median [2, 4]: 0.00
- Average AE day for vomiting, minimum [2, 4]: 0.00
- AE day for constipation, maximum [2, 5]: 114.00
- AE day for constipation, mean (SD) [2, 5]: 17.59 (27.733)
- AE day for constipation, median [2, 5]: 3.00
- AE day for constipation, minimum [2, 5]: 0.00
- AE day for dizziness, maximum [2, 5]: 114.00
- AE day for dizziness, mean (SD) [2, 5]: 8.59 (18.871)
- AE day for dizziness, median [2, 5]: 1.00
- AE day for dizziness, minimum [2, 5]: 0.00
- AE day for nausea, maximum [2, 5]: 118.00
- AE day for nausea, mean (SD) [2, 5]: 8.16 (16.511)
- AE day for nausea, median [2, 5]: 2.00
- AE day for nausea, minimum [2, 5]: 0.00
- AE day for pruritus, maximum [2, 5]: 124.00
- AE day for pruritus, mean (SD) [2, 5]: 15.92 (28.817)
- AE day for pruritus, median [2, 5]: 2.00
- AE day for pruritus, minimum [2, 5]: 0.00
- AE day for somnolence, maximum [2, 5]: 123.00
- AE day for somnolence, mean (SD) [2, 5]: 21.53 (32.137)
- AE day for somnolence, median [2, 5]: 6.00
- AE day for somnolence, minimum [2, 5]: 0.00
- AE day for vomiting, maximum [2, 5]: 18.00
- AE day for vomiting, mean (SD) [2, 5]: 1.09 (2.839)
- AE day for vomiting, median [2, 5]: 0.00
- AE day for vomiting, minimum [2, 5]: 0.00
